The results in this text go back to article PMC5729604, “Dual inhibitors of hepatitis C virus and hepatocellular carcinoma: design, synthesis and docking studies” (Future Science OA, 2017).

Entries after “also recorded” stand apart in the source; their conditions may differ.

This assay deals with HepG2 cells infected with hepatitis C virus. Kind of assay: In vitro anti-HCV screening, qualitative RT-PCR of viral RNA. As to conditions: for in vitro anti-HCV activity, in words: HCV-infected HepG2 cells, RT-PCR; for Result (anti-HCV screening): at the used dose (below LD0 on HepG2 and PBMCs), 72 h, Positive = disappearance of viral RNA-amplified product (174 bp). It counts as cell-based, HCV genotype-4. The text has this: The safe compounds on RBCs (5a-g, 5i-l, 5p-r, 5v-w, 6b-g) were screened for their in vitro anti-HCV activity using the HCC HepG2 cell line infected with the HCV. Monitoring of the HCV viremia pre- and post-antiviral therapy through the detection of viral RNA using qualitative reverse transcription-PCR (RT-PCR) was adopted in the present investigation. This technique was reported to be the most frequently used, reliable and sensitive technique. Inhibition of viral replication was detected by amplification of viral RNA segments by the RT-PCR technique both in the cultivated infected cells alone (as a positive control) and at the specified dose for each test compound at optimal temperature. The test compound was considered to be active when it can inhibit the viral replication inside the HCV-infected HepG2 cells, as evidenced by the disappearance of the viral RNA-amplified products detected by the RT-PCR (compared with positive control).
The used concentration of each compound was chosen to be lower than the LD0 on HepG2 cells. Therefore, 100% viability of HepG2 cells was maintained, to make sure that any inhibitory effect was due to anti-HCV activity rather than cytotoxic activity on HepG2 cells. Moreover, the used concentrations were also chosen to be lower than the LD0 on PBMCs. Consequently, these doses could be used for inhibition of HCV in normal cells infected with the virus.
HepG2 cells were washed twice in RPMI-1640 medium supplemented with 200 μM L-glutamine and […] HEPES buffer. The cells were suspended at 12 × 10^4 cells/ml in RPMI culture medium (RPMI supplemented medium and 10% FBS). The appropriate number of cells to be used was chosen to be 12 × 10^3 cells/well (100 μl of the prepared suspension), and the cells were left to adhere on the polystyrene […] plates in an incubator at 37°C, 5% CO2 and 95% humidity for 24 h. The cells were washed once using RPMI supplemented medium, then infected with 2% HCV-infected serum (the used serum was a pole of ten patients infected with HCV genotype-4 with viral loads: 3.2–9 million IU/ml, G4 HCV RNA) in RPMI culture medium containing 8% FBS. The used dose of each compound was chosen so as to maintain 100% viability of the HepG2 cell line (the dose was lower than the LD0 of each compound on HepG2 cells as calculated from the in vitro anticancer screening). It was reported that, cultured HepG2 cells lost their biotransformation activity due to decrease in cytochrome (CYP) transcription. This waived its effect on the compounds stability during the test. Negative control is HepG2 cells with culture medium without addition of HCV infected serum or addition of tested compounds. Positive control is HepG2 cells with culture medium and infected HCV serum but without addition of tested compounds. After addition of the compounds, the plates were incubated at 37°C, 5% CO2 and 95% humidity for 72 h, followed by RNA extraction. The RNA strand was detected by RT-PCR using HCV-specific primers to the […] region of the virus.
RNA was extracted from HepG2 cells using the method described by El-Awady et al.. Culture cells were mixed with 200 μl of 4 mol/l guanidinium isothiocyanate (Fischer Bioreagents) containing 25 mmol/l sodium citrate (MP Biomedicals, CA, USA), 0.5% sarkosyl (Fischer Bioreagents), 0.1 mol/l β-mercaptoethanol (MP Biomedicals), and 100 μl sodium acetate (Merck). The lysed cells were mixed with an equal volume of phenol, chloroform and isoamyl alcohol (25:24:1, pH 4; Fischer Bioreagents). After vortexing, the mixture was centrifuged (14,000 r.p.m. for 10 min) at 4°C. The aqueous layer was collected and mixed with an equal volume of isopropanol (Acros Organics, Geel, Belgium). After incubation at -20°C overnight, RNA was precipitated by centrifugation (14,000 r.p.m. for 30 min) at 4°C, and the precipitated RNA was washed twice with 70% ethanol. […]

As for `CC(=NN=C1SC(=Cc2cn(-c3ccccc3)nc2-c2ccccc2)C(=O)N1c1ccccc1)c1cc2ccccc2o1` [Compound 5a, 2-[1-(Benzofuran-2-yl)ethylidenehydrazono]-5-[(1,3-Diphenyl-1H-pyrazol-4-yl)methylene]-3-phenylthiazolidin-4-one], the “in vitro anti-HCV activity, in words” value is listed as “showed in vitro anti-HCV activity; also recorded: exhibited in vitro anti-HCV activity” and the “Result (anti-HCV screening)” value is on record as “Positive”.

With `CC(=NN=C1SC(=Cc2cn(-c3ccccc3)nc2-c2ccc(Cl)cc2)C(=O)N1c1ccccc1)c1cc2ccccc2o1` [Compound 5b, 2-[1-(Benzofuran-2-yl)ethylidenehydrazono]-5-{[3-(4-chlorophenyl)-1-phenyl-1H-pyrazol-4-yl]methylene}-3-phenylthiazolidin-4-one], the “Result (anti-HCV screening)” value was “Negative”.

On to `COc1ccc(-c2nn(-c3ccccc3)cc2C=C2SC(=NN=C(C)c3cc4ccccc4o3)N(c3ccccc3)C2=O)cc1` [Compound 5c, 2-[1-(Benzofuran-2-yl)ethylidenehydrazono]-5-{[3-(4-methoxyphenyl)-1-phenyl-1H-pyrazol-4-yl]methylene}-3-phenylthiazolidin-4-one], for which the “Result (anti-HCV screening)” value was “Negative”.

As for `CC(=NN=C1SC(=Cc2cn(-c3ccccc3)nc2-c2ccccc2)C(=O)N1c1ccc(Cl)cc1)c1cc2ccccc2o1` [Compound 5d, 2-[1-(Benzofuran-2-yl)ethylidenehydrazono]-5-[(1,3-Diphenyl-1H-pyrazol-4-yl)methylene]-3-(4-chlorophenyl)thiazolidin-4-one], the “Result (anti-HCV screening)” value was “Negative”.

Regarding `CC(=NN=C1SC(=Cc2cn(-c3ccccc3)nc2-c2ccc(Cl)cc2)C(=O)N1c1ccc(Cl)cc1)c1cc2ccccc2o1` [Compound 5e, 2-[1-(Benzofuran-2-yl)ethylidenehydrazono]-5-{[3-(4-chlorophenyl)-1-phenyl-1H-pyrazol-4-yl]methylene}-3-(4-chlorophenyl)thiazolidin-4-one], the “Result (anti-HCV screening)” value is on record as “Negative”.

As to `COc1ccc(-c2nn(-c3ccccc3)cc2C=C2SC(=NN=C(C)c3cc4ccccc4o3)N(c3ccc(Cl)cc3)C2=O)cc1` [Compound 5f, 2-[1-(Benzofuran-2-yl)ethylidenehydrazono]-5-{[3-(4-methoxyphenyl)-1-phenyl-1H-pyrazol-4-yl]methylene}-3-(4-chlorophenyl)thiazolidin-4-one], the “Result (anti-HCV screening)” value is “Negative”.

As to `COc1ccc(N2C(=O)C(=Cc3cn(-c4ccccc4)nc3-c3ccccc3)SC2=NN=C(C)c2cc3ccccc3o2)cc1` [Compound 5g, 2-[1-(Benzofuran-2-yl)ethylidenehydrazono]-5-[(1,3-Diphenyl-1H-pyrazol-4-yl)methylene]-3-(4-methoxyphenyl)thiazolidin-4-one], the “Result (anti-HCV screening)” value is given as “Negative”.

On to `COc1ccc(-c2nn(-c3ccccc3)cc2C=C2SC(=NN=C(C)c3cc4ccccc4o3)N(c3ccc(OC)cc3)C2=O)cc1` [Compound 5i, 2-[1-(Benzofuran-2-yl)ethylidenehydrazono]-5-{[3-(4-methoxyphenyl)-1-phenyl-1H-pyrazol-4-yl]methylene}-3-(4-methoxyphenyl)thiazolidin-4-one], for which the “Result (anti-HCV screening)” value is listed as “Negative”.

As for `CC(=NN=C1SC(=Cc2cn(-c3ccccc3)nc2-c2ccccc2)C(=O)N1C1CCCCC1)c1cc2ccccc2o1` [Compound 5j, 2-[1-(Benzofuran-2-yl)ethylidenehydrazono]-5-[(1,3-Diphenyl-1H-pyrazol-4-yl)methylene]-3-cyclohexylthiazolidin-4-one], the “Result (anti-HCV screening)” value is reported as “Negative”.

As for `CC(=NN=C1SC(=Cc2cn(-c3ccccc3)nc2-c2ccc(Cl)cc2)C(=O)N1C1CCCCC1)c1cc2ccccc2o1` [Compound 5k, 2-[1-(Benzofuran-2-yl)ethylidenehydrazono]-5-{[3-(4-chlorophenyl)-1-phenyl-1H-pyrazol-4-yl]methylene}-3-cyclohexylthiazolidin-4-one], the “Result (anti-HCV screening)” value was “Negative”.

As for `COc1ccc(-c2nn(-c3ccccc3)cc2C=C2SC(=NN=C(C)c3cc4ccccc4o3)N(C3CCCCC3)C2=O)cc1` [Compound 5l, 2-[1-(Benzofuran-2-yl)ethylidenehydrazono]-5-{[3-(4-methoxyphenyl)-1-phenyl-1H-pyrazol-4-yl]methylene}-3-cyclohexylthiazolidin-4-one], the “in vitro anti-HCV activity, in words” value is “showed in vitro anti-HCV activity; also recorded: exhibited in vitro anti-HCV activity” and the “Result (anti-HCV screening)” value is “Positive”.

Consider `CC(=NN=C1SC(=Cc2cn(-c3ccccc3)nc2-c2ccccc2)C(=O)N1c1ccc(Cl)cc1)c1nc2ccccc2[nH]1` [Compound 5p, 2-[1-(1H-Benzimidazole-2-yl)ethylidenehydrazono]-5-[(1,3-Diphenyl-1H-pyrazol-4-yl)methylene]-3-(4-chlorophenyl)thiazolidin-4-one], for which the “in vitro anti-HCV activity, in words” value is reported as “showed in vitro anti-HCV activity; also recorded: exhibited in vitro anti-HCV activity” and the “Result (anti-HCV screening)” value is listed as “Positive”.

Regarding `CC(=NN=C1SC(=Cc2cn(-c3ccccc3)nc2-c2ccc(Cl)cc2)C(=O)N1c1ccc(Cl)cc1)c1nc2ccccc2[nH]1` [Compound 5q, 2-[1-(1H-Benzimidazole-2-yl)ethylidenehydrazono]-5-{[3-(4-chlorophenyl)-1-phenyl-1H-pyrazol-4-yl]methylene}-3-(4-chlorophenyl)thiazolidin-4-one], the “Result (anti-HCV screening)” value is “Negative”.

Take `COc1ccc(-c2nn(-c3ccccc3)cc2C=C2SC(=NN=C(C)c3nc4ccccc4[nH]3)N(c3ccc(Cl)cc3)C2=O)cc1` [Compound 5r, 2-[1-(1H-Benzimidazole-2-yl)ethylidenehydrazono]-5-{[3-(4-methoxyphenyl)-1-phenyl-1H-pyrazol-4-yl]methylene}-3-(4-chlorophenyl)thiazolidin-4-one]: the “Result (anti-HCV screening)” value is reported as “Negative”.

`CC(=NN=C1SC(=Cc2cn(-c3ccccc3)nc2-c2ccccc2)C(=O)N1C1CCCCC1)c1nc2ccccc2[nH]1` [Compound 5v, 2-[1-(1H-Benzimidazole-2-yl)ethylidenehydrazono]-5-[(1,3-Diphenyl-1H-pyrazol-4-yl)methylene]-3-cyclohexylthiazolidin-4-one]: the “in vitro anti-HCV activity, in words” value is recorded as “showed in vitro anti-HCV activity; also recorded: exhibited in vitro anti-HCV activity” and the “Result (anti-HCV screening)” value was “Positive”.

For `CC(=NN=C1SC(=Cc2cn(-c3ccccc3)nc2-c2ccc(Cl)cc2)C(=O)N1C1CCCCC1)c1nc2ccccc2[nH]1` [Compound 5w, 2-[1-(1H-Benzimidazole-2-yl)ethylidenehydrazono]-5-{[3-(4-chlorophenyl)-1-phenyl-1H-pyrazol-4-yl]methylene}-3-cyclohexylthiazolidin-4-one], the “Result (anti-HCV screening)” value was “Negative”.

On to `CC(=NN=C1SC(=C2C(=O)Nc3ccccc32)C(=O)N1c1ccc(Cl)cc1)c1cc2ccccc2o1` [Compound 6b, 2-[1-(Benzofuran-2-yl)ethylidenehydrazono]-5-(2-oxoindolin-3-ylidene)-3-(4-chlorophenyl)thiazolidin-4-one], for which the “Result (anti-HCV screening)” value is reported as “Negative”.

Consider `COc1ccc(N2C(=O)C(=C3C(=O)Nc4ccccc43)SC2=NN=C(C)c2cc3ccccc3o2)cc1` [Compound 6c, 2-[1-(Benzofuran-2-yl)ethylidenehydrazono]-5-(2-oxoindolin-3-ylidene)-3-(4-methoxyphenyl)thiazolidin-4-one], for which the “Result (anti-HCV screening)” value is on record as “Negative”.
